Measured values taken from US10800791B2, “Triazole ACC inhibitors and uses thereof” (Gilead Apollo, LLC, priority 2015, dated 2020).
≈ marks a conversion by molar mass, not a printed value.

Columns and labels:
[1] = system: Phytophthora capsici (Pc); assay: Growth inhibition assay of fungal pathogens, Pc; format: cell-based; settings: 48 h, growth inhibition at 48 hours vs 2% DMSO control, read-out: Concentration at 90% Inhibition Pc
Procedure, shortened: (§1)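 Inhibition percentages reflect 48 h OD600 and visual scores relative to a 2% DMSO control. Test concentrations were 50, 10, 2 ppm or 2, 0.4, 0.08 ppm final, applied to spores in 17% V8 medium.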

[2] = system: C. albicans; assay: Antifungal Activity Assay (broth microtiter MIC), C. albicans; format: cell-based, Candida albicans; settings: Candida albicans, ATCC90028, 48 h, Table 3b (additional results); ATCC 90028; 3 replicates; MIC recorded at 48 h; read-out: MIC, C. albicans ATCC 90028
Procedure, shortened: (§2)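 MIC read by eye at 48 h, comparing challenged wells with the growth control. Yeasts grown overnight on Sabouraud dextrose agar at 35° C, suspended in RPMI 1640+MOPS and added at 2.5×10^3 CFU/mL final, following CLSI M27-A3.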

[3] = system: Fusarium virguliforme (Fv); assay: Growth inhibition assay of fungal pathogens, Fv; format: cell-based; settings: 48 h, growth inhibition at 48 hours vs 2% DMSO control, read-out: Concentration at 90% Inhibition Fv
Procedure, shortened: as §1

[4] = molecular target: human (hACC2) (Homo sapiens, UniProt O00763); assay: In vitro ACC inhibition assay (ADP-Glo), hACC2; format: biochemical; settings: Table 2b, additional results, 5 nM ACC2, 20 μM ATP, 20 μM acetyl-CoA
Method: The detailed procedure is as follows. […] 10 μL ADP glo reagent was added. […] 20 μL kinase detection reagent was added.

[5] = system: C. krusei; assay: Antifungal Activity Assay (broth microtiter MIC), C. krusei; format: cell-based, Candida krusei; settings: Pichia kudriavzevii, ATCC6258, 48 h, Table 3b (additional results); ATCC 6258; 3 replicates; MIC recorded at 48 h; read-out: MIC, C. krusei ATCC 6258
Procedure, shortened: as §2

[6] = molecular target: fungal (fACC2) (UniProt Q00955); settings: read-out: fACC2 (in vitro ACC2 Inhibition Assay, IC50); Table 2b, additional results; ADP-Glo, 5 nM ACC2, 20 μM ATP, 20 μM acetyl-CoA
[7] = system: Rhizoctonia solani (Rs); assay: Growth inhibition assay of fungal pathogens, Rs; format: cell-based; settings: 48 h, mycelial plugs, growth inhibition at 48 hours vs 2% DMSO control, read-out: Concentration at 90% Inhibition Rs
[8] = system: C. parapsilosis; assay: Antifungal Activity Assay (broth microtiter MIC), C. parapsilosis; format: cell-based, Candida parapsilosis; settings: Lodderomyces parapsilosis, ATCC22019, 48 h, Table 3b (additional results); ATCC 22019; 3 replicates; MIC recorded at 48 h; read-out: MIC, C. parapsilosis ATCC 22019
Procedure, shortened: as §2

[9] = system: Fusarium moniliforme (Fm); assay: Growth inhibition assay of fungal pathogens, Fm; format: cell-based; settings: Fusarium verticillioides, 48 h, Fusarium moniliforme; growth inhibition at 48 hours vs 2% DMSO control; read-out: Concentration at 90% Inhibition Fm
Procedure, shortened: as §1

[10] = system: Septoria tritici (St); assay: Growth inhibition assay of fungal pathogens, St; format: cell-based; settings: Zymoseptoria tritici, 48 h, Septoria tritici; growth inhibition at 48 hours vs 2% DMSO control; read-out: Concentration at 90% Inhibition St
Procedure, shortened: as §1

[11] = system: Diplodia maydis (Dm); assay: Growth inhibition assay of fungal pathogens, Dm; format: cell-based; settings: Stenocarpella maydis, 48 h, Diplodia maydis; growth inhibition at 48 hours vs 2% DMSO control; read-out: Concentration at 90% Inhibition Dm
Procedure, shortened: as §1

[12] = system: Collectotrichum graminicola (Cg); assay: Growth inhibition assay of fungal pathogens, Cg; format: cell-based; settings: 48 h, Collectotrichum graminicola; growth inhibition at 48 hours vs 2% DMSO control; read-out: Concentration at 90% Inhibition Cg
Procedure, shortened: as §1

[13] = system: Botrtyis cinerea (Bc); assay: Growth inhibition assay of fungal pathogens, Bc; format: cell-based; settings: 48 h, Botrtyis cinerea; growth inhibition at 48 hours vs 2% DMSO control; read-out: Concentration at 90% Inhibition Bc
Procedure, shortened: as §1

Sequence of fungal (fACC2) (Q00955 whole entry): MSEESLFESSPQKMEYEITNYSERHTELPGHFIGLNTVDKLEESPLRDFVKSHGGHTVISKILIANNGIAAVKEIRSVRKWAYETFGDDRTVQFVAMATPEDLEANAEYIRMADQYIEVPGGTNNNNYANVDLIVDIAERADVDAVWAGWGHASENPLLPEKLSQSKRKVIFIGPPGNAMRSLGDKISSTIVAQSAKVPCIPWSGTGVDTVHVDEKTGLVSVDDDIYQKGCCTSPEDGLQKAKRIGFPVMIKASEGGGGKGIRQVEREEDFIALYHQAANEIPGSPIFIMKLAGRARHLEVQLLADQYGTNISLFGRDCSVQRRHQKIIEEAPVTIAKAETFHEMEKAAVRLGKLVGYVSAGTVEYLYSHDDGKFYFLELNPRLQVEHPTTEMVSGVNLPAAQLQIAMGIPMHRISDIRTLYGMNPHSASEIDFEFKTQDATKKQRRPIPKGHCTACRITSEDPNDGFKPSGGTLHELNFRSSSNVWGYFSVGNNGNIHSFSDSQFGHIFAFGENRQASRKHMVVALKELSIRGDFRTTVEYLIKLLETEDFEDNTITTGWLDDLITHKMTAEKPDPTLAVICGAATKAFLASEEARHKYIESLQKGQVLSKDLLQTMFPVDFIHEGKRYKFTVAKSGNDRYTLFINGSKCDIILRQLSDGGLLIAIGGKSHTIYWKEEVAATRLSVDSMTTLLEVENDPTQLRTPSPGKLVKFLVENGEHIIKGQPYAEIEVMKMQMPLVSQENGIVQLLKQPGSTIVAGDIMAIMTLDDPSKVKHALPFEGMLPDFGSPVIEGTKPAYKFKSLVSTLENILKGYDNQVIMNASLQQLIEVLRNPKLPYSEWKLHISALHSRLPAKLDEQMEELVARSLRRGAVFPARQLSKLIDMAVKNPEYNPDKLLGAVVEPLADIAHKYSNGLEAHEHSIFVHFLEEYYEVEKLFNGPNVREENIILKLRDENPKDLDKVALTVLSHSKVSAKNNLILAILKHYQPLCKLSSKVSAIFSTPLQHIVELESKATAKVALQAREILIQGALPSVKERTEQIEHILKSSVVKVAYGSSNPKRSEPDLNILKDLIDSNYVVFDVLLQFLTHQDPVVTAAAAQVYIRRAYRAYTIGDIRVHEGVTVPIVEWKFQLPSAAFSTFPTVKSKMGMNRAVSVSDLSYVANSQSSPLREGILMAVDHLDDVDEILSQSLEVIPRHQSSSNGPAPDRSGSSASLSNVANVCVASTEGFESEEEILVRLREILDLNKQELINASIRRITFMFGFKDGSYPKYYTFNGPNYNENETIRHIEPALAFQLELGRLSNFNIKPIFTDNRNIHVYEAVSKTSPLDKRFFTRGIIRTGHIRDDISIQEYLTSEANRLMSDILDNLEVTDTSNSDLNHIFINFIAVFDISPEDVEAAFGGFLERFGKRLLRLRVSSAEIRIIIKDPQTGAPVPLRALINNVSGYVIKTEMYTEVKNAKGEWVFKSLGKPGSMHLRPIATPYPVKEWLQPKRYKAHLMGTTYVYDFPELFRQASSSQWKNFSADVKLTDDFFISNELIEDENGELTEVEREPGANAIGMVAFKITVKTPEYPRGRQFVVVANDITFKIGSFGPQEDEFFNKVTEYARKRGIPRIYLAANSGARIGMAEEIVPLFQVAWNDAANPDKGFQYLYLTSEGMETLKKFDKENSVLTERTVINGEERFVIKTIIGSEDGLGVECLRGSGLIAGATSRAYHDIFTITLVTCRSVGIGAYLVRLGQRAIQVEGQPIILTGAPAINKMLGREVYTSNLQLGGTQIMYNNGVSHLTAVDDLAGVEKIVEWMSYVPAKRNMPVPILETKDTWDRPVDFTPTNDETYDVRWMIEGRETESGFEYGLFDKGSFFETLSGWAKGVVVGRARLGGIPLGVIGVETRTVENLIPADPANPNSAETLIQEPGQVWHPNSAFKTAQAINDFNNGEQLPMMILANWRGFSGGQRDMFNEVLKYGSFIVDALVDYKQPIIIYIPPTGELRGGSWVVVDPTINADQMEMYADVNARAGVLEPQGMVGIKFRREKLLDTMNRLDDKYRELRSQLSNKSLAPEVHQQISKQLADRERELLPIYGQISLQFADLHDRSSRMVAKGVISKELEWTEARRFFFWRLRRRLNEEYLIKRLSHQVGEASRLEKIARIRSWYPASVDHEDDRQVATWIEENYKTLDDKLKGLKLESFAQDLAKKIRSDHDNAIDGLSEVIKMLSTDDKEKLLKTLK
Sequence of human (hACC2) (O00763 whole entry): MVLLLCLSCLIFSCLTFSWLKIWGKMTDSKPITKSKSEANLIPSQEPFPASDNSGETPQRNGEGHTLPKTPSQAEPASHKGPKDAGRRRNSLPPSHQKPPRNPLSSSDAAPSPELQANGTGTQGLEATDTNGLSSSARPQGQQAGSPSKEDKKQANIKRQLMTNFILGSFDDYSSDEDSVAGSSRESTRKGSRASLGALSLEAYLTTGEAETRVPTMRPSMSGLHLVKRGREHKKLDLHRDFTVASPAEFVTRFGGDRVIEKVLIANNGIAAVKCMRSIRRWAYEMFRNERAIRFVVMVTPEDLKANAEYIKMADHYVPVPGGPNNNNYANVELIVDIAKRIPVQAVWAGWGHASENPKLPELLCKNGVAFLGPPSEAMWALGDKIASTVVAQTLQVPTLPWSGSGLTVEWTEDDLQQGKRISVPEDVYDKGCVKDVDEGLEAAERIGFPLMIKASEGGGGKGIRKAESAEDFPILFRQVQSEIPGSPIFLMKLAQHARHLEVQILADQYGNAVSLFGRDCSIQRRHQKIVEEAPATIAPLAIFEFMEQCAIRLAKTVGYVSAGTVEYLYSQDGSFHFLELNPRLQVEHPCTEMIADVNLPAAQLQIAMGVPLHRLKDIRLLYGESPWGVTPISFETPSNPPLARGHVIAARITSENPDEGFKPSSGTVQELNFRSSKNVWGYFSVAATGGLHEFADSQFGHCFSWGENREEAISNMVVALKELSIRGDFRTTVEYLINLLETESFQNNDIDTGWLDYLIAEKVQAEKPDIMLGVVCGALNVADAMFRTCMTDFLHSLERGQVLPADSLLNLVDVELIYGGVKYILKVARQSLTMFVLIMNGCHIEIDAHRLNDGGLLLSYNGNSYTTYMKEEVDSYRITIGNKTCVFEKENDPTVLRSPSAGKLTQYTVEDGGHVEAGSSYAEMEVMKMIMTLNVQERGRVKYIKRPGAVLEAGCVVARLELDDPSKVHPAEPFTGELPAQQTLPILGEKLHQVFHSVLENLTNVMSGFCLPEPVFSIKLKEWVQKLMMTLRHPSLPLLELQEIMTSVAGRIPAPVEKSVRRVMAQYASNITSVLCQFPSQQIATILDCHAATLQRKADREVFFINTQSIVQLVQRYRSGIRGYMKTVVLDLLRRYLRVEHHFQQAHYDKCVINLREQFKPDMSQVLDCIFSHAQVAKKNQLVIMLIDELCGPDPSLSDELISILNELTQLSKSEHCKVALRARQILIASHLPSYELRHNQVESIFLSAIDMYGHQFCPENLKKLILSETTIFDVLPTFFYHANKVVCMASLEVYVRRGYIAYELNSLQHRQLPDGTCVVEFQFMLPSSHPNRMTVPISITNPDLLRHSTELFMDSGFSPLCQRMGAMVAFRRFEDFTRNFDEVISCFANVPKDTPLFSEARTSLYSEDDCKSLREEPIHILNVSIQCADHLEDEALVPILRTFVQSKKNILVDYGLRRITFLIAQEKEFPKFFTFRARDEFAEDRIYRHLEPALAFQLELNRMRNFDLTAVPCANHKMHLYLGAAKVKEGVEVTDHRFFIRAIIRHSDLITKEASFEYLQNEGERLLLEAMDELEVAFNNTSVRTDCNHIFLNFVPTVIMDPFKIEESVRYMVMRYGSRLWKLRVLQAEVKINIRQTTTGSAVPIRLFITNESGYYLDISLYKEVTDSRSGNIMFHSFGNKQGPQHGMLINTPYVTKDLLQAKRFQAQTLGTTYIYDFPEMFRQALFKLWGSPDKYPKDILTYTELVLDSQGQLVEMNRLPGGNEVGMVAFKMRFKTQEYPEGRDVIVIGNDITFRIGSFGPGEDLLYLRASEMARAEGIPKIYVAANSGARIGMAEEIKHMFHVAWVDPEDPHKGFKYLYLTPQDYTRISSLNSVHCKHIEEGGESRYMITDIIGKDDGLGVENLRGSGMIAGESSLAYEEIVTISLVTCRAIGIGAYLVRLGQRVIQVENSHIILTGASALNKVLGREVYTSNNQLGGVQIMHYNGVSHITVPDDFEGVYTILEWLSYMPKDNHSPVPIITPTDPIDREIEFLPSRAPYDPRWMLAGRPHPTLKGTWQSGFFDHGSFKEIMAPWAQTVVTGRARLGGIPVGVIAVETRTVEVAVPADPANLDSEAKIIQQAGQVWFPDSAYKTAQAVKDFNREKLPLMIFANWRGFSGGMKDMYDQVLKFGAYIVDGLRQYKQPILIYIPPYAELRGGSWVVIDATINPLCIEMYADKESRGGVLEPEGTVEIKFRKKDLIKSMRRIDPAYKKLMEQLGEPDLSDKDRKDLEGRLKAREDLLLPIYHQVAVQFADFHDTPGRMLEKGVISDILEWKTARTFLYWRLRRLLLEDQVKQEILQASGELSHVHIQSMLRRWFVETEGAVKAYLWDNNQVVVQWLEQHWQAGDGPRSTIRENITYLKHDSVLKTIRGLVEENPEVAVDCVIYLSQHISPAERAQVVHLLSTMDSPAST

COc1ccc(F)cc1[C@H](Cn1c(=O)n([C@@H](C)C(=O)N(C)C(C)C)c(=O)c2c(C)c(-n3nccn3)sc21)OCCC#N [Compound I-188]
IC90 [1]: > 50 µg/mL | MIC [2]: 2.01 to 4 µg/mL (≈ 3.36 to 6.69 µM) | IC90 [3]: 2 µg/mL (≈ 3.35 µM) | IC50 [4]: 5 to 10 nM | MIC [5]: 2.01 to 4 µg/mL (≈ 3.36 to 6.69 µM) | IC50 [6]: 0.3 to 1 nM | IC90 [7]: 2 µg/mL (≈ 3.35 µM) | MIC [8]: 2.01 to 4 µg/mL (≈ 3.36 to 6.69 µM) | IC90 [9]: 0.4 µg/mL (≈ 0.669 µM) | IC90 [10]: > 50 µg/mL | IC90 [11]: 2 µg/mL (≈ 3.35 µM) | IC90 [12]: 10 µg/mL (≈ 16.7 µM) | IC90 [13]: 2 µg/mL (≈ 3.35 µM)

COc1ccc(F)cc1[C@@H](O)Cn1c(=O)n(C(C)(C)C(N)=O)c(=O)c2c(C)c(-n3nccn3)sc21 [Compound I-194]
IC90 [1]: > 50 µg/mL | MIC [2]: 2.01 to 4 µg/mL (≈ 4 to 7.96 µM) | IC90 [3]: > 50 µg/mL | IC50 [4]: 5 to 10 nM | MIC [5]: 2.01 to 4 µg/mL (≈ 4 to 7.96 µM) | IC50 [6]: 1 to 5 nM | IC90 [7]: > 50 µg/mL | MIC [8]: > 4.01 µg/mL | IC90 [9]: 10 µg/mL (≈ 19.9 µM) | IC90 [10]: > 50 µg/mL | IC90 [11]: > 50 µg/mL | IC90 [12]: > 50 µg/mL | IC90 [13]: 10 µg/mL (≈ 19.9 µM)

COc1ccc(F)cc1[C@@H](O)Cn1c(=O)n([C@H](C)C(=O)N2CCCC2)c(=O)c2c(C)c(-n3nccn3)sc21 [Compound I-195]
IC90 [1]: > 50 µg/mL | MIC [2]: 1.01 to 2 µg/mL (≈ 1.86 to 3.69 µM) | IC90 [3]: 0.4 µg/mL (≈ 0.737 µM) | IC50 [4]: 5 to 10 nM | MIC [5]: 1.01 to 2 µg/mL (≈ 1.86 to 3.69 µM) | IC50 [6]: 0.3 to 1 nM | IC90 [7]: 0.4 µg/mL (≈ 0.737 µM) | MIC [8]: 1.01 to 2 µg/mL (≈ 1.86 to 3.69 µM) | IC90 [9]: 0.4 µg/mL (≈ 0.737 µM) | IC90 [10]: > 50 µg/mL | IC90 [11]: 10 µg/mL (≈ 18.4 µM) | IC90 [12]: 2 µg/mL (≈ 3.69 µM) | IC90 [13]: 2 µg/mL (≈ 3.69 µM)

COc1ccccc1[C@@H](O)Cn1c(=O)n(C(C)(C)C(N)=O)c(=O)c2c(C)c(-n3nccn3)sc21 [Compound I-196]
IC90 [1]: > 50 µg/mL | MIC [2]: > 4.01 µg/mL | IC90 [3]: > 50 µg/mL | IC50 [4]: 10 to 40 nM | MIC [5]: 2.01 to 4 µg/mL (≈ 4.15 to 8.26 µM) | IC50 [6]: 1 to 5 nM | IC90 [7]: 2 µg/mL (≈ 4.13 µM) | MIC [8]: > 4.01 µg/mL | IC90 [9]: > 50 µg/mL | IC90 [10]: > 50 µg/mL | IC90 [11]: > 50 µg/mL | IC90 [12]: > 50 µg/mL | IC90 [13]: > 50 µg/mL

COc1ccc(F)cc1[C@@H](O)Cn1c(=O)n([C@H](C)C(=O)N(C)C(C)C)c(=O)c2c(C)c(-n3nccn3)sc21 [Compound I-197]
IC90 [1]: > 50 µg/mL | MIC [2]: 2.01 to 4 µg/mL (≈ 3.69 to 7.34 µM) | IC90 [3]: 0.4 µg/mL (≈ 0.734 µM) | IC50 [4]: 5 to 10 nM | MIC [5]: 2.01 to 4 µg/mL (≈ 3.69 to 7.34 µM) | IC50 [6]: 0.3 to 1 nM | IC90 [7]: 0.4 µg/mL (≈ 0.734 µM) | MIC [8]: 2.01 to 4 µg/mL (≈ 3.69 to 7.34 µM) | IC90 [9]: 0.08 µg/mL (≈ 0.147 µM) | IC90 [10]: > 50 µg/mL | IC90 [11]: 2 µg/mL (≈ 3.67 µM) | IC90 [12]: 2 µg/mL (≈ 3.67 µM) | IC90 [13]: 0.4 µg/mL (≈ 0.734 µM)

COc1ccc(F)cc1[C@@H](O)Cn1c(=O)n([C@@H](C)C(=O)N(C)C(C)C)c(=O)c2c(C)c(-n3nccn3)sc21 [Compound I-198]
IC90 [1]: 10 µg/mL (≈ 18.4 µM) | MIC [2]: 2.01 to 4 µg/mL (≈ 3.69 to 7.34 µM) | IC90 [3]: 0.4 µg/mL (≈ 0.734 µM) | IC50 [4]: 1 to 5 nM | MIC [5]: 2.01 to 4 µg/mL (≈ 3.69 to 7.34 µM) | IC50 [6]: 1 to 5 nM | IC90 [7]: 0.08 µg/mL (≈ 0.147 µM) | MIC [8]: 2.01 to 4 µg/mL (≈ 3.69 to 7.34 µM) | IC90 [9]: 0.08 µg/mL (≈ 0.147 µM) | IC90 [10]: > 50 µg/mL | IC90 [11]: 0.4 µg/mL (≈ 0.734 µM) | IC90 [12]: 0.4 µg/mL (≈ 0.734 µM) | IC90 [13]: 0.4 µg/mL (≈ 0.734 µM)
